Test results: ChEMBL document CHEMBL1201862, “PubChem BioAssay data set” (2004)
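Cells were grown in 96-well plates and exposed to each compound for 48 hours at five concentrations; endpoints were interpolated linearly between bracketing concentrations, or set to the highest concentration if not reached. Abbreviation: GI50, concentration required for 50% inhibition of growth.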 The source made the active and inactive calls. Cut-off read from the data, not from the text of the source: active = GI50 up to about 1.1 µM and inactive = higher.

Experiments:
Assay in all cases: growth of human tumour cells (NCI), 48 h
[1] = system: RXF 393
[2] = system: HT-29
[3] = system: SK-MEL-28
[4] = system: NCI/ADR-RES
[5] = system: COLO 205
[6] = system: LOX IMVI
[7] = system: OVCAR-4
[8] = system: OVCAR-5
[9] = system: MCF7
[10] = system: DMS-114
[11] = system: NCI-H522
[12] = system: OVCAR-3
[13] = system: HCT-116
[14] = system: HCC 2998
[15] = system: SR
[16] = system: 786-0
[17] = system: Hs-578T
[18] = system: T47D
[19] = system: MDA-N
[20] = system: DU-145

Row | Compound | GI50 [1] | GI50 [2] | GI50 [3] | GI50 [4] | GI50 [5] | GI50 [6] | GI50 [7] | GI50 [8] | GI50 [9] | GI50 [10] | GI50 [11] | GI50 [12] | GI50 [13] | GI50 [14] | GI50 [15] | GI50 [16] | GI50 [17] | GI50 [18] | GI50 [19] | GI50 [20]
1 | C=C1C(=O)OCC2C(C(=O)O)=CC3C(C)C(C)=CC123 (stereo not drawn) | 7.4 µM (inactive) | 11.1 µM (inactive) | 3.52 µM (inactive) | 8.26 µM (inactive) | 10.6 µM (inactive) | 8.13 µM (inactive) | 8.32 µM (inactive) | 27.5 µM (inactive) | 8.13 µM (inactive) | 7.69 µM (inactive) | 2.31 µM (inactive) | 12.4 µM (inactive) | 9.48 µM (inactive) | 10.2 µM (inactive) | – | – | – | – | – | –
2 | CC(=O)c1ccc2c(c1)c1c(C)c3c[n+](C)ccc3c(C)c1n2C | 11.4 µM (inactive) | 13.2 µM (inactive) | 7.87 µM (inactive) | 8.55 µM (inactive) | 9.57 µM (inactive) | 4.63 µM (inactive) | 4.85 µM (inactive) | 28.9 µM (inactive) | 3.1 µM (inactive) | 2.14 µM (inactive) | 13.7 µM (inactive) | 12 µM (inactive) | 2.29 µM (inactive) | 29.5 µM (inactive) | – | – | – | – | – | –
3 | C/C(=C\c1ccccc1)C(O)C(=O)c1nc2ccc(Cl)cc2nc1O (stereo not drawn) | – | > 100 µM (inactive) | > 100 µM (inactive) | – | > 100 µM (inactive) | > 100 µM (inactive) | 26 µM (inactive) | > 100 µM (inactive) | – | 46.3 µM (inactive) | 52 µM (inactive) | 55.2 µM (inactive) | > 100 µM (inactive) | > 100 µM (inactive) | 25.1 µM (inactive) | > 100 µM (inactive) | – | – | – | –
4 | Cc1nc(-c2nc([N+](=O)[O-])c([N+](=O)[O-])[nH]2)cs1 | > 100 µM (inactive) | > 100 µM (inactive) | > 100 µM (inactive) | – | > 100 µM (inactive) | > 100 µM (inactive) | > 100 µM (inactive) | > 100 µM (inactive) | – | > 100 µM (inactive) | > 100 µM (inactive) | > 100 µM (inactive) | > 100 µM (inactive) | > 100 µM (inactive) | > 100 µM (inactive) | – | – | – | – | –
5 | O=C(c1ccccc1)c1c(CC(O)c2cccnc2)n(C(=O)c2ccccc2)c2ccccc12 (stereo not drawn) | – | 18.8 µM (inactive) | 17.7 µM (inactive) | – | 22.3 µM (inactive) | – | 15.2 µM (inactive) | 17.9 µM (inactive) | – | 27.7 µM (inactive) | 13.1 µM (inactive) | 16.6 µM (inactive) | 15.9 µM (inactive) | 16.5 µM (inactive) | 13.5 µM (inactive) | 33.2 µM (inactive) | – | – | – | –
6 | CN(C)CC(CC1=C(CC(CN(C)C)N(C)C)CCC1)N(C)C (stereo not drawn) | > 100 µM (inactive) | > 100 µM (inactive) | > 100 µM (inactive) | > 100 µM (inactive) | > 100 µM (inactive) | > 100 µM (inactive) | > 100 µM (inactive) | > 100 µM (inactive) | > 100 µM (inactive) | > 100 µM (inactive) | > 100 µM (inactive) | > 100 µM (inactive) | > 100 µM (inactive) | > 100 µM (inactive) | – | – | – | – | – | –
7 | O=C1c2ccccc2C(=O)N1CCn1nc(-c2ccccc2)cc(-c2ccccc2)c1=O | > 100 µM (inactive) | 52.6 µM (inactive) | > 100 µM (inactive) | – | 63.2 µM (inactive) | – | 42.1 µM (inactive) | > 100 µM (inactive) | – | > 100 µM (inactive) | 18.6 µM (inactive) | 27.2 µM (inactive) | 66.8 µM (inactive) | 67.8 µM (inactive) | 5.4 µM (inactive) | > 100 µM (inactive) | – | – | – | –
8 | COc1cccc(-c2nccc3c(OCc4ccccc4)c(OC)c(OC)cc23)c1 | 4.51 µM (inactive) | 12 µM (inactive) | – | – | > 100 µM (inactive) | > 100 µM (inactive) | – | > 100 µM (inactive) | – | 35.6 µM (inactive) | > 100 µM (inactive) | > 100 µM (inactive) | 7.57 µM (inactive) | 58.3 µM (inactive) | 6.68 µM (inactive) | > 10 µM (inactive) | – | – | – | –
9 | COc1cc2ccc3c4c(OC)cc(OC)c(OC)c4c([O-])[n+](C)c3c2cc1OC | – | 6.47 µM (inactive) | 30.3 µM (inactive) | – | 2.58 µM (inactive) | – | 18.1 µM (inactive) | 11.1 µM (inactive) | – | 2.37 µM (inactive) | 2.55 µM (inactive) | 7.13 µM (inactive) | 11.5 µM (inactive) | 14.4 µM (inactive) | 0.759 µM (active) | > 100 µM (inactive) | – | – | – | –
10 | NC(=O)c1csc(CCCCCCc2nc(C(N)=O)cs2)n1 | > 100 µM (inactive) | > 40.9 µM (inactive) | > 100 µM (inactive) | – | > 59.3 µM (inactive) | > 61.7 µM (inactive) | > 57.7 µM (inactive) | > 100 µM (inactive) | – | > 71.3 µM (inactive) | > 100 µM (inactive) | > 100 µM (inactive) | > 56.2 µM (inactive) | > 100 µM (inactive) | > 100 µM (inactive) | > 45.3 µM (inactive) | – | – | – | –
11 | CNC(C)Cc1ccc(O)cc1 (stereo not drawn) | > 100 µM (inactive) | > 100 µM (inactive) | > 100 µM (inactive) | – | > 100 µM (inactive) | > 100 µM (inactive) | > 100 µM (inactive) | > 100 µM (inactive) | – | > 100 µM (inactive) | > 100 µM (inactive) | > 100 µM (inactive) | > 100 µM (inactive) | > 100 µM (inactive) | > 100 µM (inactive) | > 100 µM (inactive) | – | – | – | –
12 | COc1cccc2c1C(=O)c1c(O)c3c(c(O)c1C2=O)CC(O)(C(C)=O)CC3O (stereo not drawn) | 5.98 µM (inactive) | 6.04 µM (inactive) | 12.7 µM (inactive) | 5.68 µM (inactive) | 3.02 µM (inactive) | 1.63 µM (inactive) | 6.34 µM (inactive) | 10.5 µM (inactive) | 1.01 µM (active) | 6.97 µM (inactive) | 1.03 µM (active) | 7.8 µM (inactive) | 2.41 µM (inactive) | 7.24 µM (inactive) | – | – | – | – | – | –
13 | CN(C)C(=O)/C=C/c1c[nH]c(=O)[nH]c1=O | > 500 µM (inactive) | > 500 µM (inactive) | > 500 µM (inactive) | > 500 µM (inactive) | > 500 µM (inactive) | > 500 µM (inactive) | > 500 µM (inactive) | > 500 µM (inactive) | > 500 µM (inactive) | > 500 µM (inactive) | > 500 µM (inactive) | > 500 µM (inactive) | > 500 µM (inactive) | > 500 µM (inactive) | – | – | – | – | – | –
14 | Nc1ccc(/N=N/c2ccc(/C=C/c3ccc(/N=N/c4ccc(N)c5ccc(S(=O)(=O)O)cc45)cc3S(=O)(=O)O)c(S(=O)(=O)O)c2)c2cc(S(=O)(=O)O)ccc12 | > 100 µM (inactive) | > 100 µM (inactive) | > 100 µM (inactive) | > 100 µM (inactive) | > 100 µM (inactive) | > 100 µM (inactive) | > 100 µM (inactive) | > 100 µM (inactive) | > 100 µM (inactive) | > 100 µM (inactive) | > 100 µM (inactive) | > 100 µM (inactive) | > 100 µM (inactive) | > 100 µM (inactive) | – | – | – | – | – | –
15 | O=C1c2cc3c(cc2[C@@H]2C(O)[C@H]4O[C@H]4C4CCN1C42)OCO3 (stereo partly drawn) | – | > 37.5 µM (inactive) | > 37.5 µM (inactive) | – | > 37.5 µM (inactive) | > 37.5 µM (inactive) | > 37.5 µM (inactive) | > 37.5 µM (inactive) | – | > 37.5 µM (inactive) | > 37.5 µM (inactive) | > 37.5 µM (inactive) | > 37.5 µM (inactive) | > 37.5 µM (inactive) | > 37.5 µM (inactive) | – | – | – | – | –
16 | CCCCCCCC/C=C\CCCCCCCC(=O)O [OLEIC ACID] | 92.7 µM (inactive) | > 500 µM (inactive) | 149 µM (inactive) | 102 µM (inactive) | > 500 µM (inactive) | 116 µM (inactive) | > 291 µM (inactive) | > 500 µM (inactive) | 104 µM (inactive) | 97.7 µM (inactive) | 101 µM (inactive) | 184 µM (inactive) | 114 µM (inactive) | > 434 µM (inactive) | – | – | – | – | – | –
17 | CCCCCCCCCCCCCCCCCCOP(=O)([O-])OC1CC[N+](C)(C)CC1 [PERIFOSINE] | 1.79 µM (inactive) | 3.56 µM (inactive) | 17.9 µM (inactive) | 14 µM (inactive) | 3.24 µM (inactive) | 7.43 µM (inactive) | > 9.95 µM (inactive) | 2.52 µM (inactive) | 15.7 µM (inactive) | 12.5 µM (inactive) | 2.97 µM (inactive) | 13.2 µM (inactive) | 7.94 µM (inactive) | 5.16 µM (inactive) | 1.11 µM (active) | 2.73 µM (inactive) | 13 µM (inactive) | 17.9 µM (inactive) | 12.4 µM (inactive) | 16.9 µM (inactive)
